Data on 16 compounds can be found in PubChem BioAssay (NCI).

Test systems include COLO 205 colon; OVCAR-4 ovarian; HCT-116 colon; CAKI-1 renal; SK-MEL-28 melanoma; IGROV1 ovarian; A549 NSCLC; HOP-62 NSCLC; EKVX NSCLC; BT-549 breast.
Test in all cases: DTP human tumour cell line panel, 48 h

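Dose response: 5 concentrations. Exposure: 48 h. Format: 96-well plates. Endpoint: linear interpolation; highest concentration if not reached. The concentration for full growth arrest is given as TGI.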

What is called TGI is the concentration giving total growth inhibition. A low value points to greater sensitivity of the cells.

Regarding `COc1cc2c(c(C)c1O)[C@H]1COc3ccccc3[C@H]1O2`, the TGI in the assay on COLO 205 colon was 52.2 µM; in the assay on OVCAR-4 ovarian it was 89.3 µM; in the assay on HCT-116 colon, 18.7 µM; with CAKI-1 renal, 30 µM; with SK-MEL-28 melanoma, above 100 µM; in the assay with IGROV1 ovarian it was 31.3 µM. Also, the TGI is 81.6 µM with A549 NSCLC, above 100 µM in the assay on HOP-62 NSCLC and 74.7 µM in the assay with EKVX NSCLC.

`NC(=O)N1N=C2c3ccccc3CC[C@@H]2C1c1ccccc1` (stereo not given in full): the TGI in the assay on COLO 205 colon, in the assay with HCT-116 colon, in the assay on CAKI-1 renal, in the assay on SK-MEL-28 melanoma, in the assay on IGROV1 ovarian and with A549 NSCLC was above 100 µM in each case. Further, the TGI in the assay with HOP-62 NSCLC and in the assay with EKVX NSCLC was above 100 µM in each case.

As for `CON(C)C(C#N)=C(C#N)C#N`, the TGI in the assay on COLO 205 colon, with OVCAR-4 ovarian, in the assay with HCT-116 colon, with CAKI-1 renal, in the assay with SK-MEL-28 melanoma and with IGROV1 ovarian was above 10 µM each time. Also, the TGI in the assay with A549 NSCLC, in the assay with HOP-62 NSCLC and in the assay with EKVX NSCLC was above 10 µM throughout.

`N#Cc1c(-c2ccco2)cc(-c2ccc(NCc3nc4ccccc4[nH]3)cc2)nc1N`: the TGI is 47.9 µM with COLO 205 colon; 66.3 µM with OVCAR-4 ovarian; 45.9 µM in the assay on HCT-116 colon; above 100 µM in the assay with CAKI-1 renal; 67.5 µM in the assay with SK-MEL-28 melanoma; above 100 µM in the assay on IGROV1 ovarian. Moreover, the TGI with A549 NSCLC is 93.8 µM; in the assay with HOP-62 NSCLC, 62.8 µM.

Regarding `COC(=O)C1=C(C(=O)OC)C2(OC(C)=O)c3ccccc3-c3ccccc3C12` (stereo not given), the TGI in the assay on COLO 205 colon was found to be 3.68 µM; in the assay with OVCAR-4 ovarian, 6.48 µM; with HCT-116 colon, 7.98 µM; in the assay on CAKI-1 renal, 6.08 µM; in the assay on SK-MEL-28 melanoma, 11.9 µM; in the assay with IGROV1 ovarian, 10.1 µM. Further, the TGI in the assay with A549 NSCLC was determined as 31.9 µM; in the assay on HOP-62 NSCLC it was 48.3 µM; with EKVX NSCLC, 24.1 µM.

As to `CC1(C2(C)OC(=O)c3ccccc32)OC(=O)c2ccccc21` (stereo not given), the concentration for total growth inhibition (TGI) with COLO 205 colon, in the assay on BT-549 breast, in the assay with OVCAR-4 ovarian, in the assay with HCT-116 colon, with CAKI-1 renal and in the assay on SK-MEL-28 melanoma was above 100 µM each time. The TGI in the assay on IGROV1 ovarian, in the assay with A549 NSCLC and with HOP-62 NSCLC was above 100 µM in each case.

Take `COC1=CC(=O)[C@H]2[C@H](C)C(c3ccccc3)[C@@]2(C)C1=O` (stereo not given in full): the TGI in the assay with COLO 205 colon, with OVCAR-4 ovarian, in the assay with CAKI-1 renal, with SK-MEL-28 melanoma, with IGROV1 ovarian and in the assay with A549 NSCLC was above 100 µM throughout. Further, the TGI with HOP-62 NSCLC and with EKVX NSCLC was above 100 µM throughout.

With `O=c1oc2ccccc2c(O)c1C(c1ccco1)c1c(O)c2ccccc2oc1=O`, the TGI in the assay with COLO 205 colon is 48.9 µM; in the assay on OVCAR-4 ovarian, above 100 µM; in the assay on HCT-116 colon it was above 100 µM; in the assay on CAKI-1 renal, 42.4 µM; with SK-MEL-28 melanoma, 52.1 µM; with IGROV1 ovarian it was 45.8 µM. Also, the TGI in the assay with HOP-62 NSCLC and with EKVX NSCLC was above 100 µM each time.

As for `Cc1cccc2c1Oc1cc(Cl)ccc1C2NC(=O)CCN1CCN(CCO)CC1` (stereo not given), the TGI is 36.6 µM with COLO 205 colon; 37.5 µM in the assay on BT-549 breast; 31 µM in the assay with OVCAR-4 ovarian; 34.6 µM in the assay on HCT-116 colon; 9.93 µM with SK-MEL-28 melanoma; above 100 µM with IGROV1 ovarian. Moreover, the values for the TGI with A549 NSCLC, in the assay with HOP-62 NSCLC and in the assay on EKVX NSCLC were 23.7 µM, 32.9 µM and 70.5 µM, respectively.

For the compound `CC1(C23CC4CC(CC(C4)C2)C3)n2c(=O)n(-c3ccccc3)c(=O)n2C1(C)C12CC3CC(CC(C3)C1)C2` (stereo not given), the total growth inhibition concentration (TGI) in the assay on COLO 205 colon, in the assay on BT-549 breast, in the assay on CAKI-1 renal, with SK-MEL-28 melanoma, in the assay on IGROV1 ovarian and in the assay with A549 NSCLC was above 100 µM each time. Further, the TGI in the assay on HOP-62 NSCLC and with EKVX NSCLC was above 100 µM in each case.

In the case of `CCCC/C=C/C1Cc2ccccc2CN1S(=O)(=O)c1ccc(C)cc1` (stereo not given), the TGI with COLO 205 colon is 22 µM; in the assay on OVCAR-4 ovarian it was 24.7 µM; in the assay on HCT-116 colon, 3.35 µM; in the assay on SK-MEL-28 melanoma, 22.7 µM; in the assay with IGROV1 ovarian it was 26.9 µM; in the assay with A549 NSCLC, 26.3 µM. In addition, the TGI in the assay on HOP-62 NSCLC and in the assay with EKVX NSCLC was above 100 µM each time.

In the case of `COc1nc(SC)nc2c1cnn2C1OC(C(O)CO)C(OC)C1O` (stereo not given), the total growth inhibition concentration (TGI) in the assay with COLO 205 colon, in the assay with OVCAR-4 ovarian, in the assay on HCT-116 colon, in the assay with SK-MEL-28 melanoma, with IGROV1 ovarian and in the assay with A549 NSCLC was above 100 µM throughout. The TGI with HOP-62 NSCLC and in the assay with EKVX NSCLC was above 100 µM each time.

For `CC1CC[C@@]2(OC1)OC1C[C@H]3[C@@H]4C/C(=N\N(C)C)[C@@]5(O)CC(O)CC[C@]5(C)[C@H]4CC[C@]3(C)C1[C@@H]2C` (stereo not given in full), the TGI in the assay on COLO 205 colon was above 100 µM; with BT-549 breast, above 100 µM; in the assay on OVCAR-4 ovarian, above 100 µM; in the assay on HCT-116 colon, 76.1 µM; in the assay on SK-MEL-28 melanoma it was above 100 µM; with IGROV1 ovarian, above 100 µM. For the same compound, the TGI in the assay on A549 NSCLC and with HOP-62 NSCLC was above 100 µM each time.

For the compound `CC(=O)O/N=C/c1ncccc1OC(C)=O`, the concentration for total growth inhibition (TGI) with COLO 205 colon, with OVCAR-4 ovarian, in the assay with HCT-116 colon, in the assay on CAKI-1 renal, in the assay on SK-MEL-28 melanoma and in the assay with IGROV1 ovarian was above 100 µM each time. Besides, the total growth inhibition concentration (TGI) in the assay on A549 NSCLC, with HOP-62 NSCLC and in the assay on EKVX NSCLC was above 100 µM in each case.

In the case of `Nc1nc(SCCNC(=O)CCc2ccc(O)cc2)nc2c1ncn2C1OC(CO)C(O)C1O` (stereo not given), the TGI in the assay on COLO 205 colon, in the assay on OVCAR-4 ovarian, in the assay on HCT-116 colon, in the assay with CAKI-1 renal, in the assay on SK-MEL-28 melanoma and with IGROV1 ovarian was above 203 µM in each case. The TGI in the assay with A549 NSCLC and with HOP-62 NSCLC was above 203 µM in each case.

Consider `COc1cc(C2C(Cl)C(=O)N2NC(=O)c2ccccc2O)ccc1O` (stereo not given), for which the TGI with HCT-116 colon, in the assay on SK-MEL-28 melanoma, with IGROV1 ovarian and in the assay on A549 NSCLC was above 100 µM throughout.
